The text below walks through data of ChEMBL document CHEMBL5113419.

Active and inactive are the calls of the source. No cut-off for these calls is given here.

Data set [1] addresses T1, Suppressor of tumorigenicity 14 protein (Homo sapiens, UniProt Q9Y5Y6).
T1 sequence (Q9Y5Y6 whole entry): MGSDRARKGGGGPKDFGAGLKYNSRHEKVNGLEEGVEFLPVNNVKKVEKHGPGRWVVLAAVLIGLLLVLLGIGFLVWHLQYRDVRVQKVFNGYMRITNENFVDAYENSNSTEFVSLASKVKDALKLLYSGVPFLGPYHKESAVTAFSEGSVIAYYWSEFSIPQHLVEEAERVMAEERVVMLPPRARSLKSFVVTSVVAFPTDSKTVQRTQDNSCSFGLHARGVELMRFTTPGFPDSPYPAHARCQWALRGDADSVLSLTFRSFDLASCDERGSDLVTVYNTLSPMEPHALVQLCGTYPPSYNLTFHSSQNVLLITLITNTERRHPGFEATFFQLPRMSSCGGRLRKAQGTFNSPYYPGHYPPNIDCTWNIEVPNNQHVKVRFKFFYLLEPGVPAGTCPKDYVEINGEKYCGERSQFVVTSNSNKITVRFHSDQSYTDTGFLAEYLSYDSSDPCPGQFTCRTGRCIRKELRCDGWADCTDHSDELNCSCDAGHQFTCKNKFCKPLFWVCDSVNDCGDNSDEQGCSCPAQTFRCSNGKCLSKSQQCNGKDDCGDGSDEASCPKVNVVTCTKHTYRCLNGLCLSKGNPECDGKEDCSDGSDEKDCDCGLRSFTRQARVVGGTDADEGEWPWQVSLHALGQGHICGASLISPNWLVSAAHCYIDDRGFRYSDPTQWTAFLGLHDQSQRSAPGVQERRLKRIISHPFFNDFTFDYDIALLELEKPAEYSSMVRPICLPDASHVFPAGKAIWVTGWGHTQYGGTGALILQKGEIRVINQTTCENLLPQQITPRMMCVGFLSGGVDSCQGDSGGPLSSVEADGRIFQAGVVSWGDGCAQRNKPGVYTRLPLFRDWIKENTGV
Description: Binding affinity to N-terminal MRGS(His)6GSDDDDK-tagged Matriptase (unknown origin) expressed in Escherichia coli assessed as inhibition constant using Mes-DArg-Pro-Arg-AMC as substrate.

The target of the next data set is Prothrombin (Bos taurus, UniProt P00735). Description: Binding affinity to bovine thrombin assessed as inhibition constant using tosyl-Gly-Pro-Arg-AMC as substrate.
For a further data set, the target named is Coagulation factor X (Homo sapiens, UniProt P00742). Description: Binding affinity to FXa (unknown origin) using Mes-DArg-Pro-Arg-AMC as substrate.
Sequence of Coagulation factor X (P00742 41-179 limits assumed): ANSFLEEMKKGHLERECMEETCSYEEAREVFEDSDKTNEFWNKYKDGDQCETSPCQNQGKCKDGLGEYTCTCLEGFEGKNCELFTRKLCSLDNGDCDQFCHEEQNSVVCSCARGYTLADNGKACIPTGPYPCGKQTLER
Sequence of Coagulation factor X (P00742 235-488 limits assumed): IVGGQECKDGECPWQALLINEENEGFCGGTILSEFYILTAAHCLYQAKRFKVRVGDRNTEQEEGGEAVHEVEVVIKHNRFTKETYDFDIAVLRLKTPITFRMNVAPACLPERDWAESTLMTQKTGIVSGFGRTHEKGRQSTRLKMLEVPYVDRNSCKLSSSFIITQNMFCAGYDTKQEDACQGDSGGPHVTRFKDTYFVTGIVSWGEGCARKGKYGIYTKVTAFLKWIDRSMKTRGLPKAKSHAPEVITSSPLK
Data set [2] in a line: Selectivity ratio of Ki for binding affinity to bovine thrombin assessed as inhibition constant using tosyl-Gly-Pro-Arg-AMC as substrate to Ki for binding affinity to N-terminal MRGS(His)6GSDDDDK-tagged Matriptase (unknown origin) expressed in Escherichia coli assessed as inhibition constant using Mes-DArg-Pro-Arg-AMC as substrate. The settings on record: Homo sapiens.
The species named for another data set is Homo sapiens. Description: Selectivity ratio of Ki for binding affinity to FXa (unknown origin) using Mes-DArg-Pro-Arg-AMC as substrate to Ki for binding affinity to N-terminal MRGS(His)6GSDDDDK-tagged Matriptase (unknown origin ) expressed in Escherichia coli assessed as inhibition constant using Mes-DArg-Pro-Arg-AMC as substrate.
The subject of the next data set is MDCK-II. Description: Cytotoxicity against MDCK-II cells assessed as reduction in cell viability at 50 uM measured for 24 hrs by Celltiter-glo luminescent assay. Type of data set: toxicity, cell-based, Canis lupus familiaris. The settings on record: dog. (In general: Cellular ATP, detected with luciferase, serves as a proxy for viable cell number.)
Data set [3] has as its system Influenza A virus. Description: Antiviral activity against Influenza A virus H9N2 infected in MDCK-II cells assessed as inhibition of viral replication measured after 24 hrs by immunostaining based assay. The class given is functional, organism-based. The settings on record: DDE = dose-dependent effect.
Data set [4] relates to Influenza A virus. In words: Antiviral activity against Influenza A virus H9N2 infected in MDCK-II cells assessed as reduction in comet-shaped foci at 50 uM measured after 24 hrs by immunostaining based assay. Type of data set: functional, organism-based.
In data set [5] the test system is Influenza A virus. In words: Antiviral activity against Influenza A virus H9N2 infected in MDCK-II cells assessed as reduction in comet-shaped foci at 20 uM measured after 24 hrs by immunostaining based assay. Type of data set: functional, organism-based.
For data set [6], the system named is Influenza A virus. Description: Antiviral activity against Influenza A virus H9N2 infected in MDCK-II cells assessed as reduction in viral titer in supernatants at 5 to 50 uM measured after 24 hrs by plaque assay. Type of data set: functional, organism-based. The settings on record: dose 5-50 µM.

A word on the Ki: it is a measure of affinity in units of concentration, obtained from inhibition or displacement. As for `CC(C)(C)NC(=O)NC1CCN(C(=O)[C@H](Cc2cccc(C(=N)N)c2)NS(=O)(=O)c2cccc(-c3ccc(Cl)cc3Cl)c2)CC1`, the values for the inhibition constant Ki (in [1]; on Prothrombin; at Coagulation factor X) were 5 nM, 174 nM and 4 nM, respectively. For the same molecule, the values for the Ratio Ki (in data set [2]; in the data set filed under Homo sapiens) were 35 and 0.8, respectively.
On the same counts, the results for `COCc1ccc(-c2cccc(S(=O)(=O)N[C@@H](Cc3cccc(C(=N)N)c3)C(=O)N3CCC(NC(=O)NC(C)(C)C)CC3)c2)cc1` are 9 nM, 1790 nM, 179 nM, 199 and 20.
Take `CC(C)(C)NC(=O)NC1CCN(C(=O)[C@H](Cc2cccc(C(=N)N)c2)NS(=O)(=O)c2cccc(-c3ccc(C(=N)N)cc3)c2)CC1`: the inhibition constant Ki in [1] is 0.8 nM; on Prothrombin it was 449 nM; on Coagulation factor X, 84 nM. In addition, the Ratio Ki is 561 in [2] and 105 in the data set filed under Homo sapiens.
On the same counts, the results for `CC(C)Oc1ccc(-c2cccc(S(=O)(=O)N[C@@H](Cc3cccc(C(=N)N)c3)C(=O)N3CCC(NC(=O)NC(C)(C)C)CC3)c2)cc1` are 58 nM, 5140 nM, 439 nM, 89 and 9.3.
On the same counts, the results for `Cc1ccc(-c2cccc(S(=O)(=O)N[C@@H](Cc3cccc(C(=N)N)c3)C(=O)N3CCC(NC(=O)NC(C)(C)C)CC3)c2)cc1` are 7 nM, 412 nM, 28 nM, 59 and 4.
In the case of `CC(C)(C)NC(=O)NC1CCN(C(=O)[C@H](Cc2cccc(C(=N)N)c2)NS(=O)(=O)c2cccc(-c3ccc(F)c(CO)c3)c2)CC1`, the Ki was 50 nM in data set [1], 1070 nM at Prothrombin and 51 nM on Coagulation factor X. The Ratio Ki was 21 in [2] and 1 in the data set listed under Homo sapiens.
In the same order, the values of `CC(C)(C)NC(=O)NC1CCN(C(=O)[C@H](Cc2cccc(C(=N)N)c2)NS(=O)(=O)c2cccc(-c3ccc(COC(C)(C)C)cc3)c2)CC1` are 171 nM, 2520 nM, 529 nM, 15 and 3.1.
On the same counts, the results for `CC(C)(C)NC(=O)NC1CCN(C(=O)[C@H](Cc2cccc(C(=N)N)c2)NS(=O)(=O)c2cccc(-c3ccc(CN)cc3)c2)CC1` are 4 nM, 553 nM, 10 nM, 138 and 2.5.
On the same counts, the results for `COc1ccc(-c2cccc(S(=O)(=O)N[C@@H](Cc3cccc(C(=N)N)c3)C(=O)N3CCN(C(=O)OC(C)(C)C)CC3)c2)c(OC)c1` are 17 nM, 12 nM, 52 nM, 0.7 and 3.1.
As for `COc1ccc(-c2cccc(S(=O)(=O)N[C@@H](Cc3cccc(C(=N)N)c3)C(=O)N3CCN(C(=O)C4CCCCC4)CC3)c2)c(OC)c1`, the values for the inhibition constant Ki (in data set [1]; on Prothrombin; at Coagulation factor X) were 43 nM, 414 nM and 95 nM, respectively. In addition, the results for the Ratio Ki (in [2]; in the data set listed under Homo sapiens) were 10 and 2.2, respectively.
`COc1ccc(-c2cccc(S(=O)(=O)N[C@@H](Cc3cccc(C(=N)N)c3)C(=O)N3CCC(NC(=O)NC(C)(C)C)CC3)c2)c(OC)c1`: the results for the inhibition constant Ki (in data set [1]; on Prothrombin; on Coagulation factor X) were 3 nM, 1800 nM and 2 nM, respectively. Further, the Ratio Ki in data set [2] came to 600; in the data set listed under Homo sapiens, 0.7. Moreover, the Activity entry in the data set with MDCK-II is “Toxic”; in the data set on Influenza A virus [3], “Dde”. Also, the result in the data set with Influenza A virus [4], in the data set on Influenza A virus [5] and in the data set with Influenza A virus [6] was Active.
`COc1ccc(-c2cccc(S(=O)(=O)N[C@@H](Cc3cccc(C(=N)N)c3)C(=O)N3CCC(NC(=O)NC(C)C)CC3)c2)c(OC)c1`: the Ki in data set [1] stood at 8 nM; on Prothrombin, 228 nM; on Coagulation factor X it was 3 nM. For the same molecule, the Ratio Ki in data set [2] was 29; in the data set listed under Homo sapiens, 0.4.
For the molecule `CC(C)(C)NC(=O)NC1CCN(C(=O)[C@H](Cc2cccc(C(=N)N)c2)NS(=O)(=O)c2cccc(-c3ccc(N)nc3)c2)CC1`, the inhibition constant (Ki) is 3 nM in data set [1], 4260 nM at Prothrombin and 4 nM on Coagulation factor X. Further, in data set [2], the Ratio Ki was found to be 1420.
As to `COc1ccc(-c2cccc(S(=O)(=O)N[C@@H](Cc3cccc(C(=N)N)c3)C(=O)N3CCN(C(=O)NC4CCCCC4)CC3)c2)c(OC)c1`, the Ki in [1] stood at 38 nM; at Prothrombin, 912 nM; at Coagulation factor X, 10 nM. In addition, the results for the Ratio Ki (in data set [2]; in the data set listed under Homo sapiens) were 24 and 0.3, respectively. The Activity result in the data set on MDCK-II was “Toxic”; with Influenza A virus [3] it was “Dde”. The outcome with Influenza A virus [4], in the data set on Influenza A virus [5] and with Influenza A virus [6] was Active.
On to `COc1ccc(-c2cccc(S(=O)(=O)N[C@@H](Cc3cccc(C(=N)N)c3)C(=O)N3CCN(C(=O)NC(C)(C)C)CC3)c2)c(OC)c1`, for which the inhibitory constant (Ki) came to 104 nM in data set [1], 73 nM at Prothrombin and 13 nM at Coagulation factor X. The figures for the Ratio Ki (in data set [2]; in the data set filed under Homo sapiens) were 0.7 and 0.1, respectively.
In the same order, the values of `CC(C)(C)NC(=O)NC1CCN(C(=O)[C@H](Cc2cccc(C(=N)N)c2)NS(=O)(=O)c2cccc(-c3ccc(CO)cc3)c2)CC1` are 11 nM, 12000 nM, 60 nM, 1090 and 5.5.
On the same counts, the results for `CC(C)(C)NC(=O)NC1CCN(C(=O)[C@H](Cc2cccc(C(=N)N)c2)NS(=O)(=O)c2cccc(-c3cccc(CN)c3)c2)CC1` are 1 nM, 1320 nM, 0.1 nM, 1320 and 0.1.
On the same counts, the results for `CNC(=O)NC1CCN(C(=O)[C@H](Cc2cccc(C(=N)N)c2)NS(=O)(=O)c2cccc(-c3ccc(OC)cc3OC)c2)CC1` are 26 nM, 89 nM, 23 nM, 3.4 and 0.9.
As to `COc1ccc(-c2cccc(S(=O)(=O)N[C@@H](Cc3cccc(C(=N)N)c3)C(=O)N3CCN(C(=O)C(C)(C)C)CC3)c2)c(OC)c1`, the inhibitory constant (Ki) in [1] came out at 143 nM; at Prothrombin it was 42 nM; at Coagulation factor X, 116 nM. Besides, the Ratio Ki worked out at 0.3 in data set [2] and 0.8 in the data set listed under Homo sapiens.
In the same order, the values of `CC(C)(C)NC(=O)NC1CCN(C(=O)[C@H](Cc2cccc(C(=N)N)c2)NS(=O)(=O)c2cccc(-c3cccc(CO)c3)c2)CC1` are 59 nM, 490 nM, 33 nM, 8.3 and 0.6.
In the same order, the values of `CC(C)(C)NC(=O)NC1CCN(C(=O)[C@H](Cc2cccc(C(=N)N)c2)NS(=O)(=O)c2cccc(-c3cc(F)c(CO)c(F)c3)c2)CC1` are 24 nM, 11800 nM, 504 nM, 492 and 21.
